Values quoted from earlier work, collected in patent US10751314B2, “Compositions comprising rumenic acid-rich conjugated linoleic acid for joint health” (STEPAN SPECIALTY PRODUCTS, LLC, priority 2016, dated 2020).

How the values were obtained:
[1] = test system: young men and women with birch pollen allergy; conditions: 8 weeks of supplementation
PPARγ = conditions: mouse macrophage cells
human epithelial cells = conditions: via activation of PPARγ

Structure (SMILES): CCCCCC/C=C/C=C\CCCCCCCC(=O)O [RA, cis-9, trans-11 linoleic acid]
- Allergic responses mediated by inflammation [1]: reduced
- Antioxidant activity (PPARγ): served as an antioxidant
- PPARγ activation (PPARγ): activated
- Inflammatory responses (human epithelial cells): reduced inflammatory responses
